In publication PMC9921896 (Molecules, 2023):

Assays:
CYP2B6 = molecular target: T1, CYP2B6 (Homo sapiens, UniProt P20813); experiment: Single concentration Kobs assay (time-dependent inhibition) in HLM; format: biochemical; conditions: for Kobs 2B6: HLM, single concentration, 0.02 min^−1 indicates TD inhibition potential; for Single concentration Kobs assay (risk bin) 2B6: TD inhibition class from Kobs vs 0.02 min^−1 (Table 5 traffic lights)
T1 construct: Using HLM as the enzyme source; from tissue; host or cells: human liver microsomes
T1 sequence (P20813 1-491): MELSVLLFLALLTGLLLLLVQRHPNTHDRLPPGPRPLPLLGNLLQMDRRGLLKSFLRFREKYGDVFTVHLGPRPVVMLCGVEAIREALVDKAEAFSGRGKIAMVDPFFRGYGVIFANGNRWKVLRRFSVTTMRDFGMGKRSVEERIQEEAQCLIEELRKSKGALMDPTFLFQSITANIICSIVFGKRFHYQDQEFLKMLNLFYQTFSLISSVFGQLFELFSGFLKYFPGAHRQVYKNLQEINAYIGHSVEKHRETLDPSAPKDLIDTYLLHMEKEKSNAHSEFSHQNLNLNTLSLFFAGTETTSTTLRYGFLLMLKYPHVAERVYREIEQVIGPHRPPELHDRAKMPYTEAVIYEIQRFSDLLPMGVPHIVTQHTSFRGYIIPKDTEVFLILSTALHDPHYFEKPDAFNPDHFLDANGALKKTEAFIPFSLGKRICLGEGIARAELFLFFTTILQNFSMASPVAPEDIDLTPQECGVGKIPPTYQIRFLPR
From the text: (§1) CYP inhibition evaluation is typically performed by either IC50 at single-point or IC50 Shift or abbreviated assay such as the first-order inactivity rate constant (K obs ) at single concentration.
(§2) This method yielded good correlations between the percent inhibition at 10 or 25 μ M and kinact/KI. Evaluation of TD inhibition at single concentration has been implemented in several drug discovery programs. […] Therefore, in this study, a single K obs approach has been utilized to understand the TD inhibition potential of TbB ligands. Ideally, the inhibition of CYPs can be reversible or irreversible. The data obtained from single-concentration K obs studies were analyzed to understand the same. From the data presented in Table 4, the TbB ligands have values less than 50% for reversible inhibition (R_Inh). As the qualified % reversible inhibition is considered significant if >50%, no significant reversible inhibition is observed for TbB ligands. Knowledge about enzyme inactivation half-life (E½) is also equally important as it would provide insight into the TD inhibition of a compound. E½ can be used to bin the compounds as positive or negative TD inhibitors if the values are <28 or >28, respectively. The TbB ligand 223-2 is observed to be a weak positive TD inhibitor of 1A2 and is negative TD inhibitor to the other six CYP isoforms.
(§3) The time-dependent inhibition (TDI) potential of test compounds against CYP1A2, 2B6, 2C8, 2C9, 2C19, 2D6, 3A4/5 isoforms were determined using Human liver microsomes. Assay is performed in 96-deep well plate format (n = 1). Positive controls and DMSO as negative control in each assay. To obtain 100 μ M working stock solution, 1 μ L of blank DMSO/test/reference compounds to 100 μ L 1× DPBS buffer was added and labeled as dilution plate. To the primary incubation plate, 45 μ L of primary mix was dispensed to the desired wells containing 25 μ L HLM, 10 μ L MgCl2, and 10 μ L of NADPH working solutions. To the secondary incubation plate, 95 μ L of secondary mix was dispensed to the desired wells containing 20 μ L MgCl2, 20 μ L NADPH, 10 μ L respective substrates for CYP isoform working solutions and 45 μ L 1× DPBS buffer. Each of these four plates were labeled with their respective time points, i.e., 0, 6, 16, 32 min. Pre-incubated the dilution plate along with primary incubation plate at 37 °C for 15 min at 450 rpm. The reaction was carried out in triplicate. After the incubation, the reaction was quenched by adding 150 μ L ice cold stop solution to all the wells followed by centrifuging the samples at 4000 rpm, 4 °C for 15 min. The supernatant samples were then transferred into vials for LC-MS/MS analysis. The percent Reversible Inhibition was calculated using the following formula. %Reversibleinhibition=100−(PARtestcompt0×100)/(PARaverageDMSOt0)

CYP2C8 = molecular target: T2, CYP2C8 (Homo sapiens, UniProt P10632); experiment: as above; format: biochemical; conditions: for Kobs 2C8: HLM, 0.02 min^−1 indicates TD inhibition potential; for Kobs 2C8 / inhibition at 30 min: single concentration; for Single concentration Kobs assay (risk bin) 2C8: TD inhibition class from Kobs vs 0.02 min^−1 (Table 5 traffic lights); for inhibition at 30 min: human, human liver microsomes, significant if >50%, read-out: 2C8 R_Inh% (reversible inhibition)
T2 construct: Using HLM as the enzyme source; from tissue; host or cells: human liver microsomes
T2 sequence (P10632 1-490): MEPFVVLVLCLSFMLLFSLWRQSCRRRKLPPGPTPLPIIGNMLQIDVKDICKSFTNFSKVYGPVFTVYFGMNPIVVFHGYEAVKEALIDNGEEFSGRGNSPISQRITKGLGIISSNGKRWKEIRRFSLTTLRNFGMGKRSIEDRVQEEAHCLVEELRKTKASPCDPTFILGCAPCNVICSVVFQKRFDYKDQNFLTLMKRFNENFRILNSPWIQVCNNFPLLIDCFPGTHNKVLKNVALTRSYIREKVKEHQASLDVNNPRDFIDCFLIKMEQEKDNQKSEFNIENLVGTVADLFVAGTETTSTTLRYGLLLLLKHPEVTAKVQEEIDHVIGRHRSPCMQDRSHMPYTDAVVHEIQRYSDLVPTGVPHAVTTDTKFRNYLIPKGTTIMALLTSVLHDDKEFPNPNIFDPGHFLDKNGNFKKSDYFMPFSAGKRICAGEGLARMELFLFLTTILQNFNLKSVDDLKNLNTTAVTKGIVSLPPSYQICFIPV
From the text: as §1, §2, §3

CYP2D6 = molecular target: T3, CYP2D6 (Homo sapiens, UniProt P10635); experiment: as above; format: biochemical; conditions: for Kobs 2D6: HLM, 0.02 min^−1 indicates TD inhibition potential; for Kobs 2D6 / inhibition at 30 min: single concentration; for Single concentration Kobs assay (risk bin) 2D6: TD inhibition class from Kobs vs 0.02 min^−1 (Table 5 traffic lights); for inhibition at 30 min: human, human liver microsomes, significant if >50%, read-out: 2D6 R_Inh% (reversible inhibition)
T3 construct: Using HLM as the enzyme source; from tissue; host or cells: human liver microsomes
From the text: as §1, §2, §3

estrogenicity = conditions: cited from earlier work

T3 sequence (P10635 whole entry): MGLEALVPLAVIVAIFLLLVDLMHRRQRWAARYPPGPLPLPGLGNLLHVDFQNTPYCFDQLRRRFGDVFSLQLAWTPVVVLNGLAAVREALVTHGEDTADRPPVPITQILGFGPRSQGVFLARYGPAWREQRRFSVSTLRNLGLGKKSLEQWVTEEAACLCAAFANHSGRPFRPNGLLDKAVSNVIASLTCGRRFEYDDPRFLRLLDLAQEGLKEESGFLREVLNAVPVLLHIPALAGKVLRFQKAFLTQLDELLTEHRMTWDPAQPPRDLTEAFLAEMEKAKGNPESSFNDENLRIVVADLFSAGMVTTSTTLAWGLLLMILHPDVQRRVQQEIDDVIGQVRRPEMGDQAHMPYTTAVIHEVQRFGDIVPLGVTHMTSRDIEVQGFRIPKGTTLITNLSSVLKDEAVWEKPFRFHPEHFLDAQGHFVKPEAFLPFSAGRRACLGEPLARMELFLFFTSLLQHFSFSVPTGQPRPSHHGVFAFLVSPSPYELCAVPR

Kobs 2B6 (CYP2B6)	Kobs 2B6 (CYP2B6; listed as 223-02)	Single concentration Kobs assay (risk bin) 2B6 (CYP2B6)	Kobs 2C8 (CYP2C8)	Single concentration Kobs assay (risk bin) 2C8 (CYP2C8)	inhibition at 30 min (CYP2C8)	Kobs 2D6 (CYP2D6)	Single concentration Kobs assay (risk bin) 2D6 (CYP2D6)	inhibition at 30 min (CYP2D6)	Compound	estrogenicity by in vitro studies (estrogenicity)
0.0147 min⁻¹	0.01472 min⁻¹	weak positive inhibitor	0.004276 min⁻¹	negative inhibitor	< 50%	1.479e-10 min⁻¹	negative inhibitor	< 50%	COc1cc(-c2nnn(-c3cc(OC)c(O)c(OC)c3)n2)cc(OC)c1O [223-2]	potentially non-estrogenic
0.01121 min⁻¹		weak positive inhibitor	0.01585 min⁻¹	weak positive inhibitor	< 50%	0.009064 min⁻¹	negative inhibitor	< 50%	Oc1ccc(-c2nnn(-c3ccc(O)cc3)n2)cc1 [223-10]	
0.02027 min⁻¹		weak positive inhibitor	0.02943 min⁻¹	positive inhibitor	< 50%	0.01109 min⁻¹	weak positive inhibitor	< 50%	Cc1cc(-c2nnn(-c3cc(C)c(O)c(C)c3)n2)cc(C)c1O [223-3]	potentially non-estrogenic
